Consider 17 compounds from patent US20220274967A1, “BCAT MODULATION” (Icagen, LLC, priority 2019, published 2022).

pIC50: −log10 of the molar value.

By pIC50 is commonly meant the IC50 on a negative log10 scale, so that one unit is a factor of ten. Low values mean a large IC50, high ones a small IC50. The IC50 is the concentration that inhibits the measured activity by half.

One assay concerns the target T1, BCAT2 (Homo sapiens, UniProt O15382).
T1 sequence (O15382 28-392): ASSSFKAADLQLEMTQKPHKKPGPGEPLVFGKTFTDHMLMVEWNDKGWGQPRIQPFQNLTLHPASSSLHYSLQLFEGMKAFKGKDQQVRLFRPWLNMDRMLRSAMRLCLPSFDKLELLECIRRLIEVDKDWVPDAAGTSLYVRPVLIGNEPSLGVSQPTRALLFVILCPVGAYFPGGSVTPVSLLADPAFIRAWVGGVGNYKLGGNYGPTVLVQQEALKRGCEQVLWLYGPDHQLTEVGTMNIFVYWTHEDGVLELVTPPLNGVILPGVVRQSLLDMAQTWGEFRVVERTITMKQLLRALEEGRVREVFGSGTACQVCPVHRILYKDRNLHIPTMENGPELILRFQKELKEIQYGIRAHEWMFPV
Description: BCAT2 enzyme inhibition (human). It counts as biochemical. Summed up:
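Cell-free coupled fluorescent assay: human BCATm converts branched-chain amino acids and α-ketoglutarate to L-glutamate, which L-glutamate oxidase and HRP link to resorufin formation from Amplex Red; activity taken as reduced glutamate signal.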

Assay [1] can be described thus: 3-HIB assay in vitro, direct MS assay of conditioned media. The class given is cell-based, human. To be noted: Homo sapiens, 24 h, GM00371 cells, read-out: 3HIB INHIBITION IC50 (μM) MEAN GM00371 cells Direct MS Assay. The procedure:
Cell Plating: Cells (Coriell Institute GM00371 cells) were plated (96-well clear bottom sterile plate; Greiner 655098) at 10,000 cells/0.1 mL in Eagle's minimum essential medium (EMEM)/15% FBS (Gibco 16000-044) with a Combi dispenser in a cell culture hood and incubated at 37° C. and 5% CO2 overnight.
Compound Dilution: Compound were prepared as 33.3× intermediate dilution in DMSO in 96 well round polystyrene plates. For 30 μM final maximum start with 30 μL of 10 mM in DMSO. 10-12 1:3 serial dilutions were prepared from left to right (20 μL+40 μL DMSO). A 10× secondary dilution was prepare in EMEM by taking 7.5 μL 33.3× and transfer to replicate 96 well round polystyrene plates and then adding 242.5 μL EMEM A 1× final dilution in EMEM was prepared by taking 50 μL 10× dilution and transferring to replicate 96 well polypropylene assay block (Costar 3956) and adding 450 μL EMEM A control was prepared for maximal compound inhibition by taking 20 μL 10 mM Reference Compound A and adding 40 μL DMSO for a concentration of 3.3 mM To 7.5 μL of the 3.3 mM Reference Compound A solution and added 242.5 μL EMEM to make a 100 μM solution. The subsequent Reference Compound A solution was diluted with EMEM to achieve a final concentration of 10 μM. The structure of Reference Compound A is:
A control was prepared for maximal compound toxicity by taking 7.5 μL Reference Compound B and 242.5 μL EMEM to make […]. 50 μL of that 100 μM Reference Compound B solution was combined with 450 μL EMEM to achieve a concentration of 30 μM. The structure of Reference Compound B is
A DMSO Control was prepared by dilution 7.5 μL with 242.5 μL EMEM and taking 50 μL of the subsequent solution and diluting with 450 μL EMEM.
Compound Treatment: Media was aspirated from the cells and 100 μL of D-PBS (ThermoFisher 14190144) was added and then removed. 100 μL of diluted compound was added to the cells in the place and the cells were incubated at 37° C. and 5% CO2 for 24 hours.
Collection of Conditioned Media: For 3HIB MS detection: 20 μL conditioned media was removed from the cells and was transferred to a labeled replicate 96 well polypropylene assay plate (VWR 62408-946). And the plate was heat sealed and stored at −80° C.
3HIB Derivatization (Generalized SOP): The media collected for 3HIB MS detection was derivatized under the following conditions. Buffer: 0.1M 1-Ethyl-3-(3-dimethylaminopropyl)carbodiimide (EDC) dissolved in 0.1 M 2-(N-morpholino)ethanesulfonic acid ([…]) adjusted to pH 5.6. Buffer prep: weighed 10.6 g MES (Sigma #M-5287) per 500 mL HPLC grade H2O. Stored at 4° C.; 0.1M EDC: Weighed 1.971 g EDC (#E-1769) per 100 mL MES. Adjusted pH to 5.6 with ˜40 drops of 1N NaOH and stored at 4° C. Buffer has a short half-life should be used within two weeks.
Derivatization: To 20 μL sample was added 60 μL 5 uM 3HIB-4C13 internal standard followed by 20 μL EDC in MES and 100 μL MES. The plate was sealed and incubate at 50° C. for […] then centrifuged at 4000 rpm at 6° C. for 10 minutes. LC-MS analysis was then conducted and the data was processed using standard methods.

Another assay has as its target T2, BCAT1 (Homo sapiens, UniProt P54687).
T2 sequence (P54687 1-386): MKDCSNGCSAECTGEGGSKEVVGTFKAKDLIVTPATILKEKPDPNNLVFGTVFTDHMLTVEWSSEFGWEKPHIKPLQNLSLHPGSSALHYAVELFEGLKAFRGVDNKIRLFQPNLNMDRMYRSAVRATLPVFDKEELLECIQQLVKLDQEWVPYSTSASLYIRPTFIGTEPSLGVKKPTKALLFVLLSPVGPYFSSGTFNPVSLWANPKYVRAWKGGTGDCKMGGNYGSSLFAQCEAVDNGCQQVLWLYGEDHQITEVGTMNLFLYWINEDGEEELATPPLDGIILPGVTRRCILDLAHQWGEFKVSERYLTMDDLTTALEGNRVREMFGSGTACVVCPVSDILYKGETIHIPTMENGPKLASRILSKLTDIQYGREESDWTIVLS
Kind of assay: BCAT1 enzyme inhibition (human), Glutamate Glo luminescence. The class given is biochemical. The protocol: The BCAT1 inhibitory activity of selected compounds of the present disclosure were also evaluated. Compounds were prepared as up to 10 mM stock solutions generally using DMSO as the vehicle. 10-point dose response curves were generated using the Echo-550 (Labcyte) acoustic dispenser. Compound source plates ([…]) were made by serially diluting compound stocks to create 1 mM, 0.1 mM, and 0.01 mM solutions in DMSO into Echo certified LDV plates. The Echo then serially spotted 100% DMSO stock solutions into source dose response plates to generate a semi-log fold dilution scheme. 100% DMSO was added to the spotted dose response plates to bring the final volume to 5 μL, creating a 333× stock plate. 120 nL of the dose response stock plate was then spotted into the assay plate. 10 μL of assay buffer (50 mM Tris with 0.05% TWEEN-20) was then added to the plates resulting in a 4× working concentration in the assay plate. Final assay test concentration range was 3 μM to 0.0001 μM with a final DMSO concentration of 0.3%.
BCAT1 enzyme stock was first diluted to a 4× working concentration of 0.24 μg/mL in assay buffer (final assay concentration is 0.06 ug/ml). 10 μL of the 4×BCAT1 solution was then added to the previously prepared assay plate containing test compound or controls, and incubated at room temperature, protected from light, for either 10 or 60 minutes. After the compound incubation period, 20 μL of assay buffer plus 2× substrate is added to all wells (Final assay concentration of substrates is 300 μM L-leucine and 250 μM alpha-ketoglutaric acid). Enzyme reaction was then incubated for 10 minutes at room temperature. After the 10 minute incubation, the enzymatic reaction was halted with the addition of 5 μL of 0.6N HCl and incubated for 1 min. 5 μL of 1M Tris (pH 8.0) was then added to neutralize pH. 12.5 μL of the quenched assay volume was then transferred to a white, 384 well plate and 12.5 μL of Glutamate detection reagent was added (detection reagent prepared per Promega Glutamate Glo kit instructions). Plates were then incubated for 30 minutes at room temperature, protected from light. After glutamate detection incubation period, luminescence was read on BMG Novostar and relative light units was measured and exported for analysis.
Compound modulation of BCAT1 enzymatic activity was determined as follows. IC50 values were calculated in ActivityBase, using a 4-parameter fit equation. Data was normalized to maximum inhibition form the reference agent VS558CSA (at 10 μM). Relative light units were exported for analysis and % inhibition values for each well were calculated using the following formula: […]

The subject of the next assay is GM00371 cells. Kind of assay: Viability assay (Cell titer glo) in the 3-HIB assay. It counts as cell-based, human. To be noted: Homo sapiens, 24 h, read-out: 3HIB INHIBITION IC50 (μM) MEAN GM00371 cells Viablility Assay. In outline: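 GM00371 cells (10,000/well, EMEM/15% FBS) were exposed for 24 h at 37 °C to compounds in 1:3 serial dilution from 30 μM top concentration in EMEM. Reference Compound B at 30 μM served as maximal-toxicity control. Viability read as CellTiter-Glo luminescence.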

Consider `CNC(=O)c1ccc2c(c1)nc(-c1cccs1)n2[C@H]1CCC[C@@H](NC(=O)c2ccc(Cl)s2)C1` [Compound 189], for which the negative-log IC50 (pIC50) against BCAT2 is more than 7.00. In addition, in assay [1], the IC50 lay in the range of 0.1 to 0.5 µM.

Take `CNC(=O)c1ccc2c(c1)nc(-c1ncccc1F)n2[C@H]1CCC[C@@H](NC(=O)c2ccc(C#N)s2)C1` [Compound 198]: the pIC50 was more than 7.00 against BCAT2 and 6.30 to 7.00 at BCAT1. Besides, in the assay with GM00371 cells, the IC50 was not below 1 µM.

Turning to `CNC(=O)c1cc2nc(-c3cccc(F)c3)n(C3CCC[C@@H](NC(=O)c4ccc(Cl)s4)C3)c2cc1F` (some centres unmarked) [Compound 224], the pIC50 was more than 7.00 at BCAT2 and 6.30 to 7.00 at BCAT1. In addition, the IC50 in the assay on GM00371 cells lay in the range of 0.1 to 0.5 µM.

For the compound `CC(=O)c1ccc2c(c1)nc(-c1ccccn1)n2[C@H]1CCC[C@@H](NC(=O)c2ccc(Br)s2)C1` [Compound 196], the negative-log IC50 (pIC50) at BCAT2 is more than 7.00; on BCAT1, not above 6.00. Further, the IC50 in the assay on GM00371 cells is not below 1 µM.

Regarding `CNC(=O)c1ccc2c(c1)nc(-c1sccc1C)n2[C@H]1CCC[C@@H](NC(=O)c2ccc(Br)s2)C1` [Compound 169], the pIC50 is more than 7.00 against BCAT2 and not above 6.00 at BCAT1. In the assay on GM00371 cells, the 50% inhibitory concentration (IC50) is not below 1 µM.

Take `O=C(N[C@@H]1CCC[C@H](n2c(-c3ncccc3F)nc3cnccc32)C1)c1ccc(Br)s1` [Compound 284]: the results for the pIC50 against BCAT2 and at BCAT1 were more than 7.00 and 6.30 to 7.00, respectively. For the same compound, the IC50 in the assay with GM00371 cells was not below 1 µM.

Take `CNC(=O)c1ccc2c(c1)nc(-c1ccccc1C(F)F)n2C1CCC[C@@H](NC(=O)c2ccc(Cl)s2)C1` (some centres unmarked) [Compound 222]: the pIC50 on BCAT2 was more than 7.00; at BCAT1, 6.30 to 7.00. Besides, the IC50 with GM00371 cells is 0.1 to 0.5 µM.

Consider `CNC(=O)c1cc2nc(-c3ccccc3C)n([C@H]3CCC[C@@H](NC(=O)c4ccc(Cl)s4)C3)c2cc1F` [Compound 205], for which the pIC50 is more than 7.00 on BCAT2 and 6.30 to 7.00 at BCAT1. In the assay on GM00371 cells, the IC50 was not below 1 µM.

In the case of `CNC(=O)c1cc2nc(-c3ccccn3)n(C3COCC(NC(=O)c4ccc(Br)s4)C3)c2cc1F` (centres unmarked) [Compound 234, 1-(5-(5-bromothiophene-2-carboxamido)tetrahydro-2H-pyran-3-yl)-6-fluoro-N-methyl-2-(pyridin-2-yl)-1H-benzo[d]imidazole-5-carboxamide], the pIC50 at BCAT2 was more than 7.00; at BCAT1 it was 6.30 to 7.00. The IC50 in the assay with GM00371 cells is not below 1 µM.

On to `CNC(=O)c1ccc2c(c1)nc(-c1ccccc1[N+](=O)[O-])n2C1CCCC(NC(=O)c2ccc(C#N)s2)C1` (centres unmarked) [Compound 200], for which the pIC50 against BCAT2 was more than 7.00; against BCAT1, 6.30 to 7.00. For the same compound, the IC50 in the assay on GM00371 cells was not below 1 µM.

In the case of `CNC(=O)c1cc2nc(-c3ccccc3F)n(C3CCC[C@@H](NC(=O)c4ccc(F)s4)C3)c2cc1F` (some centres unmarked) [Compound 226], the pIC50 on BCAT2 was more than 7.00; against BCAT1, 6.30 to 7.00. Besides, in the assay on GM00371 cells, the half-maximal inhibitory concentration (IC50) lay in the range of 0.5 to 1 µM.

In the case of `CNC(=O)c1ccc2c(c1)nc(-c1ccccc1C(N)=O)n2[C@H]1CCC[C@@H](NC(=O)c2ccc(Br)s2)C1` [Compound 143], the negative-log IC50 (pIC50) against BCAT2 is more than 7.00; at BCAT1, not above 6.00. Also, the IC50 with GM00371 cells is not below 1 µM.

On to `CNC(=O)c1ccc2c(c1)nc(-c1ccccc1C(F)F)n2C1CCC[C@@H](NC(=O)c2ccc(C#N)s2)C1` (some centres unmarked) [Compound 221], for which the pIC50 against BCAT2 is more than 7.00; at BCAT1 it was 6.30 to 7.00. Also, the half-maximal inhibitory concentration (IC50) in the assay with GM00371 cells is not below 1 µM.

For the compound `CNC(=O)c1ccc2c(c1)nc(-c1ccccc1C(F)F)n2C1CCC[C@@H](NC(=O)c2ccc(Br)s2)C1` (some centres unmarked) [Compound 223], the pIC50 at BCAT2 and against BCAT1 was more than 7.00 in each case. Besides, in the assay on GM00371 cells, the IC50 was 0.1 to 0.5 µM.

With `CNC(=O)c1cc2nc(-c3sccc3F)n([C@H]3CCC[C@@H](NC(=O)c4ccc(Cl)s4)C3)c2cc1F` [Compound 230], the values for the pIC50 against BCAT2 and against BCAT1 were more than 7.00 and 6.00 to 6.30, respectively. Also, the IC50 in the assay on GM00371 cells is not below 1 µM.

In the case of `CNC(=O)c1cc2nc(-c3cccc(F)c3)n(C3CCC[C@@H](NC(=O)c4ccc(F)s4)C3)c2cc1F` (some centres unmarked) [Compound 225], the results for the pIC50 against BCAT2 and against BCAT1 were more than 7.00 and not above 6.00, respectively. The IC50 in the assay with GM00371 cells is not below 1 µM.

With `CNC(=O)c1ccc2c(c1)nc(-c1ccccc1OC(F)(F)F)n2[C@H]1CCC[C@@H](NC(=O)c2ccc(Br)s2)C1` [Compound 166], the pIC50 against BCAT2 was more than 7.00; at BCAT1, 6.00 to 6.30. Besides, the IC50 with GM00371 cells lay in the range of 0.1 to 0.5 µM.
